Data: ChEMBL document CHEMBL3044645, “Synthesis and Pesticidal Activities of N-Phosphinoyl Heterocycles” (J Pestic Sci, 1997)

Experiments:
[1] = test system: Tetranychus urticae; assay: Acaricidal activity against Tetranychus urticae (two-spotted spider mite) in French bean leaf at 50 to 200 ppm after 2 days; type: functional
[2] = test system: Meloidogyne incognita; assay: Nematicidal activity against Meloidogyne incognita (root-knot nematode) at 1 kg/ha after 3 weeks; type: functional
[3] = test system: Myzus persicae; assay: Aphicidal activity against Myzus persicae (green peach aphid) in cabbage leaf at 50 to 200 ppm after 2 days; type: functional
[4] = test system: Tetranychus urticae; assay: Acaricidal activity against Tetranychus urticae (two-spotted spider mite) in French bean leaf at 800 ppm after 2 days; type: functional
[5] = test system: Myzus persicae; assay: Aphicidal activity against Myzus persicae (green peach aphid) in cabbage leaf at 200 to 800 ppm after 2 days; type: functional
[6] = test system: Meloidogyne incognita; assay: Nematicidal activity against Meloidogyne incognita (root-knot nematode) at 8 kg/ha after 3 weeks; type: functional
[7] = test system: Meloidogyne incognita; assay: Nematicidal activity against Meloidogyne incognita (root-knot nematode) at 4 to 8 kg/ha after 3 weeks; type: functional
[8] = test system: Myzus persicae; assay: Aphicidal activity against Myzus persicae (green peach aphid) in cabbage leaf at 800 ppm after 2 days; type: functional
[9] = test system: Tetranychus urticae; assay: Acaricidal activity against Tetranychus urticae (two-spotted spider mite) in French bean leaf at 200 to 800 ppm after 2 days; type: functional
[10] = test system: Meloidogyne incognita; assay: Nematicidal activity against Meloidogyne incognita (root-knot nematode) at 1 to 4 kg/ha after 3 weeks; type: functional
[11] = test system: Myzus persicae; assay: Aphicidal activity against Myzus persicae (green peach aphid) in cabbage leaf at <50 ppm after 2 days; type: functional
[12] = test system: Tetranychus urticae; assay: Acaricidal activity against Tetranychus urticae (two-spotted spider mite) in French bean leaf at <50 ppm after 2 days; type: functional
[13] = Dissociation constant, pKa of the compound by titration method; type: physicochemical
[14] = Acute toxicity in Mus musculus (mouse); type: organism-based; settings: in vivo
[15] = test system: Meloidogyne incognita; assay: Insecticidal activity against Meloidogyne incognita (root-knot nematode); type: functional, organism-based
[16] = test system: Tetranychus urticae; assay: Insecticidal activity against Tetranychus urticae (two-spotted spider mite); type: functional
[17] = test system: Myzus persicae; assay: Insecticidal activity against Myzus persicae (green peach aphid); type: functional
[18] = test system: Musca domestica; assay: Insecticidal activity against adult Musca domestica (house fly) assessed per adult; type: functional
[19] = molecular target: Acetylcholinesterase (Musca domestica, UniProt Q7YWJ9); assay: Inhibition of Musca domestica (house fly) head AchE; settings: read-out: I50
Chain of Acetylcholinesterase (Q7YWJ9 whole entry): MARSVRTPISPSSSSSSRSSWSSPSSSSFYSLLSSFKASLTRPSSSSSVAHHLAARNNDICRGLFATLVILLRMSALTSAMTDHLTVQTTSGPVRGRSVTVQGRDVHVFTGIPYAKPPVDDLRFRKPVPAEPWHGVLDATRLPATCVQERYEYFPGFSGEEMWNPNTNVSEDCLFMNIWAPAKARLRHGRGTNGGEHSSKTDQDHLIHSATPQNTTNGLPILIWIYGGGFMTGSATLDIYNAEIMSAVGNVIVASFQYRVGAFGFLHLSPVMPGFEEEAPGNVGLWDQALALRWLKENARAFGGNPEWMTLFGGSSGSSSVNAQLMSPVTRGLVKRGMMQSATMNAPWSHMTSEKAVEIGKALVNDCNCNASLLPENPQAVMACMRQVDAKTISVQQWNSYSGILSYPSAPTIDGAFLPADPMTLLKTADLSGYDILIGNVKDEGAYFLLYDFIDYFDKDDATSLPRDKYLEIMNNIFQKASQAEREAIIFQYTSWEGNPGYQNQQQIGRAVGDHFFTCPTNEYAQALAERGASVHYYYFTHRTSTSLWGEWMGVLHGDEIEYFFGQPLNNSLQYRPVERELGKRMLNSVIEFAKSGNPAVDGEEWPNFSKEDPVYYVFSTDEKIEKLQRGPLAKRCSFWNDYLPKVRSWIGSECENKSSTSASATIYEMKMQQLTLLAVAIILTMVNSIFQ

In the case of `CCOP(=O)(SC(C)CC)N1C(=O)OCC1OC` (stereo not given), the Activity [1] is reported as >90%, the Activity [2] is reported as 0% and the Activity [3] is reported as >90%.
In the case of `CCOP(=O)(SC(C)CC)N1CCSC1=C(C#N)C#N` (stereo not given), the Activity [4] is reported as <90%, the Activity [5] is reported as >90% and the Activity [6] is reported as >25%.
For `CCOP(=O)(SC(C)CC)N1CC(C(C)(C)C)OC1=O` (stereo not given), the Activity [1] was >90%, the Activity [5] was >90% and the Activity [7] was 0%.
For `CCOP(=O)(SC(C)CC)N1CC(=O)SC1=O` (stereo not given), the Activity [8] was <90%, the Activity [4] was <90% and the Activity [6] was >25%.
In the case of `CCCCC1COC(=O)N1P(=O)(OCC)SC(C)CC` (stereo not given), the Activity [8] is reported as <90%, the Activity [9] is reported as >90% and the Activity [10] is reported as 0%.
In the case of `CCOP(=O)(SC(C)CC)n1ccoc1=O` (stereo not given), the Activity [8] is reported as <90%, the Activity [4] is reported as <90% and the Activity [6] is reported as >25%.
For `CCOP(=O)(SCC(C)C)N1CCOC1=O` (stereo not given), the Activity [11] was >90%, the Activity [10] was 0% and the Activity [12] was >90%.
For `CCOP(=O)(OCC)N1CCOC1=O`, the Activity [8] was <90%, the Activity [4] was <90% and the Activity [6] was >25%.
In the case of `CCOP(=O)(SC(C)CC)N1CCOC1=O` (stereo not given), the pKa [13] is reported as 11.8, the Activity [11] is reported as >90% and the Activity [2] is reported as 0%. The LD50 [14] was < 30 mg/kg and the Activity [12] was >90%.
With `CCOP(=O)(SC(C)CC)N1CCCC1=O` (stereo not given) the Activity [9] was >90%, the Activity [2] was 0% and the Activity [3] was >90%.
In the case of `CCC(C)SP(=O)(OC)N1CCOC1=O` (stereo not given), the Activity [9] is reported as >90%, the Activity [5] is reported as >90% and the Activity [6] is reported as >25%.
In the case of `CCOP(=O)(SC(C)CC)N1CCSC1=O` (stereo not given) [FOSTHIAZATE], the pKa [13] is reported as 11.6, the Activity [11] is reported as >90% and the Activity [2] is reported as 0%. The LD50 [14] was 127 mg/kg and the Activity [12] was >90%.
For `CCOP(=O)(SC(C)CC)N1CCSC1=O` (stereo in doubt; (-)-8) [FOSTHIAZATE], the EC50 [15] was 0.079 ppm, the LC50 [16] was 35.7 ppm and the LC50 [17] was >13.2 ppm. The Activity [18] was 0.108 µg and the IC50 [19] was > 1000 µM.
For `CCOP(=O)(SC(C)CC)N1CCSC1=O` (racemic) [FOSTHIAZATE], the EC50 [15] was 29.6 ppm, the LC50 [16] was >22.4 ppm and the LC50 [17] was >4.06 ppm. For the same molecule, the Activity [18] was 18 µg.
For `CCOP(=O)(SC(C)CC)N1C(=O)OCC1CC` (stereo not given), the Activity [11] was >90%, the Activity [2] was 0% and the Activity [12] was >90%.
With `CCCOP(=O)(SC(C)CC)N1CCOC1=O` (stereo not given) the Activity [9] was >90%, the Activity [5] was >90% and the Activity [7] was 0%.
For `CCOP(=O)(SC(C)CC)N1CC(C#N)OC1=O` (stereo not given), the Activity [8] was <90%, the Activity [9] was >90% and the Activity [7] was 0%.
For `CCOP(=S)(SC(C)CC)N1CCOC1=O` (stereo not given), the Activity [9] was >90%, the Activity [5] was >90% and the Activity [6] was >25%.
For `CCOP(=O)(SC(C)CC)N1C(=O)OCC1C` (stereo not given), the Activity [11] was >90%, the Activity [2] was 0% and the Activity [12] was >90%.
With `CCOP(=O)(SC(C)CC)N1OCCC1=O` (stereo not given) the Activity [9] was >90%, the Activity [5] was >90% and the pKa [13] was 10.5. For the same molecule, the Activity [6] was >25%.
In the case of `CCOP(=O)(SC(C)CC)N1CCSC1=O` (single isomer, unassigned; (+)) [FOSTHIAZATE], the EC50 [15] is reported as 2.339 ppm, the LC50 [16] is reported as >800 ppm and the LC50 [17] is reported as >53.7 ppm. The Activity [18] was 1.945 µg.
For `CCC(C)SP(=O)(OCCF)N1CCOC1=O` (stereo not given), the Activity [4] was <90%, the Activity [5] was >90% and the Activity [7] was 0%.
With `CCOP(=O)(SC(C)CC)N1CCSC1=S` (stereo not given) the Activity [1] was >90%, the Activity [5] was >90% and the Activity [6] was >25%.
With `CCOP(=O)(SC(C)CC)N1CC(S(C)(=O)=O)OC1=O` (stereo not given) the Activity [9] was >90%, the Activity [5] was >90% and the Activity [7] was 0%.
With `CCCSP(=O)(NC)N1CCOC1=O` (stereo not given) the Activity [9] was >90%, the Activity [5] was >90% and the Activity [6] was >25%.
In the case of `CCOP(=O)(SC(C)CC)N1CCCOC1=O` (stereo not given), the Activity [9] is reported as >90%, the Activity [5] is reported as >90% and the Activity [7] is reported as 0%.
With `CCOP(=O)(SC(C)CC)N1C(=O)OCC1C(=O)OC` (stereo not given) the Activity [8] was <90%, the Activity [9] was >90% and the Activity [6] was >25%.
For `CCOP(=O)(SC(C)CC)N1CC(C)OC1=O` (stereo not given), the Activity [11] was >90%, the Activity [2] was 0% and the Activity [12] was >90%.
In the case of `CCCSP(=O)(SC)N1CCOC1=O` (stereo not given), the Activity [8] is reported as <90%, the Activity [4] is reported as <90% and the Activity [6] is reported as >25%.
With `CCOP(=O)(SC(C)CC)N1C(=O)CCC1=O` (stereo not given) the Activity [8] was <90%, the Activity [4] was <90% and the pKa [13] was 9.6. For the same molecule, the Activity [6] was >25%.
With `CCOP(=O)(SC(C)C)N1CCOC1=O` (stereo not given) the Activity [9] was >90%, the Activity [5] was >90% and the Activity [7] was 0%.
For `CCOP(=O)(SC(C)CC)N1C(=O)OC(C)C1C` (stereo not given), the Activity [2] was 0% and the Activity [12] was >90%.
